Measurements taken from patent publication US8829039B2, “Dihydroindolinone derivatives” (Shanghai Institute of Pharmaceutical Industry, priority 2008, dated 2014).

Legend:
[1] = tested on: poorly differentiated human gastric adenocarcinoma cell BGC-823; experiment: Anti-tumor activity assay (MTT), BGC-823; format: cell-based; settings: 48 hrs, samples stored at −20° C. for one week, read-out: Inhibition rate; for inhibition at 0.1 µg/mL: final concentration 0.1 μg/mL; for inhibition at 1 µg/mL: final concentration 1 μg/mL; for inhibition at 10 µg/mL: final concentration 10 μg/mL
Method: (§1) These tests were carried out using conventional operations in the art. Specifically, the following materials and methods were employed:
(§2) Human cervical cancer cell Hela, human liver cancer cell SMMC-7721, human lung cancer cell A549, poorly differentiated human gastric adenocarcinoma cell BGC-823, human breast cancer cell MDA-MB-231.
(§3) To a bottle containing exponential growth phase cells in good condition, 0.25% trypsin solution was added. […] The cell suspension was seeded in a 96-well plate with an amount of 100 μL/well, incubated in a CO2 incubator for 24 hrs. 20 μL/well of tested compounds were added, followed by […], of 10% serum medium, and incubated for 48 hrs. 20 μL/well of MTT (5 mg/mL) was added to the 96-well plate, and the cells were incubated for 4 hrs in the incubator. After removing the supernatant, 150 μL/well of DMSO was added, and the cells were shaked in a horizontal swing bed for 10 minutes. Optical density value (OD value) of each well was measured with an ELISA analyzer at 490 nm, and cell inhibition rate was calculated. The corresponding solvent was used as negative control, and paclitaxel was used as positive control.

[2] = tested on: human colon cancer HT-29 cells transplanted in nude mice; experiment: Growth inhibition of human cancer HT-29 cells transplanted in nude mice; format: in vivo; settings: for Body weight d0 / Body weight d21: nude mice with HT-29 tumor; for Body weight d0: d0, time of administration in separate cages; for Body weight d0 / TV d0: 30 mg/kg group; for Body weight d21 / T/C (%) / RTV / TV d21: 30 mg/kg intragastrically once a day for 21 days; for T/C (%): relative tumor proliferation rate TRTV/CRTV; for RTV: relative tumor volume TVt/TV0; for TV d0: tumor volume at d0, time of administration in separate cages; for TV d21: tumor volume at d21
Method: A piece of tumor tissue in vigorous growth phase was obtained and cut into the size of about 1.5 mm^3, and subcutaneously inoculated into the right axillary region of nude mice aseptically. Diameters of transplanted tumors in nude mice were measured with a vernier caliper. After tumors grew to 100˜300 mm^3, the animals were randomly divided into 6 groups: model control group, Sunitinib group (30 mg/kg), Compound 1 group (30 mg/kg), Compound 2 group (30 mg/kg), Compound 3 group (30 mg/kg), Compound 4 group (30 mg/kg). […] Meanwhile, the negative control group was administered equivalent amount of sterile saline. The dynamic observation of antitumor effects of compounds 1-4 and Sunitinib was performed by measuring tumor diameters. […] The general behavior of nude mice was observed and recorded daily. (1) Tumor volume (TV), calculated by the equation: […] wherein a, b represent length and width, respectively. […] RTV=TVt/TV0 wherein TV0 represents the tumor volume at the beginning of administration in separated cages (ie. d0), TVt represents the tumor volume of each measurement. […] T/C %=(TRTV/CRTV)×100% TRTV: RTV of positive control group and each test compound group. CRTV: RTV of model control group.

[3] = tested on: human breast cancer cell MDA-MB-231; experiment: Anti-tumor activity assay (MTT), MDA-MB-231; format: cell-based; settings: 48 hrs, samples stored at −20° C. for one week, read-out: Inhibition rate; for inhibition at 0.1 µg/mL: final concentration 0.1 μg/mL; for inhibition at 1 µg/mL: final concentration 1 μg/mL; for inhibition at 10 µg/mL: final concentration 10 μg/mL
Method: as §1, §2, §3

Fibroblast NIH/3T3 = experiment: Inhibition of fibroblast NIH/3T3 proliferation (MTT); format: cell-based; settings: Mus musculus, NIH3T3, 48 h, read-out: Inhibition of NIH/3T3 cell proliferation in vitro IC50
Source text: The method commonly used at present for studying fibroblast proliferation associated diseases, i.e., for studying tissue and organ fibrosis, is measuring effects of test compounds on NIH/3T3 cell proliferation (Gao Z. M., Wan K., Effect of inhibition of NIH/3T3 cell proliferation by Cantharidin on prevention and treatment of organ and tissue fibrosis. Chinese Journal of Clinical Rehabilitation, 2004 (2). Tao Y. Y., Wang X. L., Effects of Salvianolic Acid-B on TGF-β1/ERK Signaling Transduction in NIH/3T3 Fibroblast. Journal of Capital Medical University, 2007 (2)).
Fibroblast NIH/3T3 in logarithmic growth phase was seeded in a 96-well plate, by a certain number of cells (100 μL/well, 0.5−1×10^4 cells/mL). After incubating for 24 h, the screened samples (20 μl/well) were added (directly added after cell suspension was seeded in the plate), incubated for further 48 h at 37° C. and 5% CO2. Afterwards, MTT (5 mg/mL) was added to the 96-well plate (20 μL/well). The cells were incubated for another 4 h, and then dissolved with DMSO (150 μL/well) and measured with a microplate reader at 490 nm. The inhibition rate and IC50 were calculated.

[4] = tested on: Human cervical cancer cell Hela; experiment: Anti-tumor activity assay (MTT), Hela; format: cell-based; settings: 48 hrs, samples freshly prepared with DMSO, read-out: Inhibition rate; for inhibition at 0.1 µg/mL: final concentration 0.1 μg/mL; for inhibition at 1 µg/mL: final concentration 1 μg/mL; for inhibition at 10 µg/mL: final concentration 10 μg/mL
Method: as §1, §2, §3

[5] = tested on: colon cancer cell COLO205; experiment: Inhibition of tumor cell proliferation in vitro (MTT), COLO205; format: cell-based; settings: Homo sapiens, COLO 205, 48 hrs, read-out: Growth inhibition in vitro IC50
Method: (§4) The activity assay of the compounds of the invention was carried out through common methods in the art. Commercially available Sunitinib was used as positive control, and lung cancer cell H460, colon cancer cell COLO205 and HT29, breast cancer cell A435 were used as exemplary tumor cells. The tested compounds were prepared by the methods disclosed in the Examples above.
(§5) A certain amount (100 μL/well, 0.5−1×10^4 cells/mL) of lung cancer cell H460, colon cancer cell COLO205, and breast cancer cell A435, etc. in logarithmic growth phase were seeded in a 96-well plate, and incubated in an incubator for 24 hrs at 37° C. and 5% CO2. Afterwards, tested compounds and positive control (20 μL/wells) were added, followed by 80 µL of 10% serum medium, and then the tumor cells were incubated for further 48 hrs at 37° C. and 5% CO2. Afterwards, MTT (5 mg/mL) was added to the 96-well plates (20 μL/well), and the cells were incubated for another 4 h. After removing the supernatant, the cells were dissolved with DMSO (150 μL/well) and measured with a microplate reader at 490 nm.

breast cancer cell A435 = experiment: Inhibition of tumor cell proliferation in vitro (MTT), A435; format: cell-based; settings: 48 hrs, read-out: Growth inhibition in vitro IC50
Method: as §4, §5

[6] = tested on: human liver cancer cell SMMC-7721; experiment: Anti-tumor activity assay (MTT), SMMC-7721; format: cell-based; settings: 48 hrs, samples stored at −20° C. for one week, read-out: Inhibition rate; for inhibition at 0.1 µg/mL: final concentration 0.1 μg/mL; for inhibition at 1 µg/mL: final concentration 1 μg/mL; for inhibition at 10 µg/mL: final concentration 10 μg/mL
Method: as §1, §2, §3

Lung cancer cell H460 = experiment: Inhibition of tumor cell proliferation in vitro (MTT), H460; format: cell-based; settings: Homo sapiens, NCI-H460, 48 hrs, read-out: Growth inhibition in vitro IC50
Method: as §4, §5

[7] = tested on: human lung cancer cell A549; experiment: Anti-tumor activity assay (MTT), A549; format: cell-based; settings: 48 hrs, samples stored at −20° C. for one week, read-out: Inhibition rate; for inhibition at 0.1 µg/mL: final concentration 0.1 μg/mL; for inhibition at 1 µg/mL: final concentration 1 μg/mL; for inhibition at 10 µg/mL: final concentration 10 μg/mL
Method: as §1, §2, §3

Structure (SMILES)	inhibition at 0.1 µg/mL [1] [%]	inhibition at 1 µg/mL [1] [%]	inhibition at 10 µg/mL [1] [%]	Body weight d0 [2] [g]	Body weight d21 [2] [g]	T/C (%) [2] [%]	RTV [2]	TV d0 [2] [mm^3]	TV d21 [2] [mm^3]	inhibition at 0.1 µg/mL [3] [%]	inhibition at 1 µg/mL [3] [%]	inhibition at 10 µg/mL [3] [%]	IC50 (Fibroblast NIH/3T3) [nM]	inhibition at 0.1 µg/mL [4] [%]	inhibition at 1 µg/mL [4] [%]	inhibition at 10 µg/mL [4] [%]	melting point [°C]	IC50 [5] [nM]	IC50 (breast cancer cell A435) [nM]	inhibition at 0.1 µg/mL [6] [%]	other results
CCN1CCCC1CNC(=O)c1c(C)[nH]c(/C=C2\C(=O)Nc3ccc(F)cc32)c1C (stereo not shown) [Compound 1, N-[(1-ethylpyrrolidin-2-yl)methyl]-5-(5-fluoro-2-oxo-1,2-dihydroindole-3-methylene)-2,4-dimethyl-1H-pyrrole-3-formamide]	14.8	20	93.9	20.2 ± 1.9	21.5 ± 1.3	10.1	0.9 ± 0.2	194.7 ± 57.7	163.7 ± 33.6	-8.3	6.9	92.2	205	4.69	32.5	97.4	232 to 236	78	63	-21.2	growth inhibition of human colon cancer HT-29 cells transplanted in nude mice (in words) ([2]; 30 mg/kg continuously administered intragastrically): strongest inhibition of tumor proliferation; inhibition at 1 µg/mL [6]: -0.47%; inhibition at 10 µg/mL [6]: 88.5%; IC50 (Lung cancer cell H460): 61 nM; inhibition at 0.1 µg/mL [7]: 18.6%; inhibition at 1 µg/mL [7]: 31.1%; inhibition at 10 µg/mL [7]: 99.3%
Cc1[nH]c(/C=C2\C(=O)Nc3ccc(F)cc32)c(C)c1C(=O)NCCC1CCCN1C (stereo not shown) [Compound 2, N-[(1-methylpyrrolidin-2-yl)ethyl]-5-(5-fluoro-2-oxo-1,2-dihydroindole-3-methylene)-2,4-dimethyl-1H-pyrrole-3-formamide]	4.73	20.2	76.2	19.7 ± 1.7	19.7 ± 1.6	17.8	1.6 ± 0.9	193.5 ± 61.9	342.9 ± 284.7	-0.2	16.5	71.6	536	-6.18	24.7	97.2	241 to 244	110	85	-6.59	inhibition at 1 µg/mL [6]: -10.8%; inhibition at 10 µg/mL [6]: 74.8%; IC50 (Lung cancer cell H460): 160 nM; inhibition at 0.1 µg/mL [7]: 0.59%; inhibition at 1 µg/mL [7]: 29.9%; inhibition at 10 µg/mL [7]: 100%
Cc1[nH]c(/C=C2\C(=O)Nc3ccc(F)cc32)c(C)c1C(=O)NCC1CCCCN1 (stereo not shown) [Compound 3]	-5.42	17	78.8	20.6 ± 2.0	20.8 ± 2.3	15.0	1.3 ± 0.7	196.7 ± 62.7	290.4 ± 238.4	-5.4	0.5	88.6	530	-3.2	50.8	98	263 to 266	110	68	-18.6	inhibition at 1 µg/mL [6]: 4%; inhibition at 10 µg/mL [6]: 62.1%; IC50 (Lung cancer cell H460): 140 nM; inhibition at 0.1 µg/mL [7]: 11.9%; inhibition at 1 µg/mL [7]: 22.7%; inhibition at 10 µg/mL [7]: 94.2%
